These results are taken from patent US20070072209A1, “Methods of treatment and diagnosis of Kaposi's sarcoma (KS) and KS related diseases” (priority 2005, published 2007).

Assay type in all cases: cell-based, human
Series [1] has as its system DMVEC. As to the kind of experiment: Uptake, distribution and persistence of FITC-labeled PMO antisense. The conditions noted are these: 3 hours after loading, FITC-labeled PMO with EPEI. An excerpt:
(§1) Introduction of antisense PMO into KSHV-infected DMVEC. Antisense PMO molecules, for delivery purposes, are typically converted to a paired duplex together with a partially complementary cDNA oligonucleotide in the weakly basic delivery reagent ethoxylated polyethylenimine (EPEI) (Summerton, supra). The anionic complex binds to the cell surface, is taken up by endocytosis and eventually released into the cytosol. A protocol for optimum uptake of antisense PMO in immortalized DMVEC was developed using a modification of the EPEI method. Briefly, uninfected, immortalized DMVECs were incubated for 3 hours at 37° C. with 0.6 nmol/well FITC-PMO complexed with EPEI according to the manufacturer's instructions (GeneTools, LLC, One Summerton Way, Philomath, Oreg. 97370) (e.g., 1.25 nMol oligomer with 2.5 μl EPEI reagent per 35 mm dish, allowing for sufficient antisense uptake without non-specific EPEI-induced toxicity). The PMOs were labeled with FITC to allow for monitoring of loading efficiency by fluorescence microscopy.
Cellular distribution of introduced FITC-labeled PMO antisense molecules. […]
Therefore, the introduced PMO antisense oligomers were determined to be stable over substantial time periods in DMVEC. […] Moreover, the PMO oligomers were readily taken up by DMVEC and distributed within the cytosol.

The subject of series [2] is KSHV-infected DMVEC. The series is described as follows: Morpholino treatment and focus inhibition assay (Example 5). The conditions noted are these: for Foci/spindle morpholigical inhibition: PMO-treated KSHV-infected DMVEC vs control PMO, repeated three times; for effect on phenotype (foci, spindle shape) in focus-inhibition assay (in words): PMO-AS, KSHV-infected DMVEC, 5-10 days. The protocol:
Morpholino Treatment and Focus Inhibition Assay. Phosphorodiamidate morpholino antisense oligonucleotides (PMO-AS) were designed and synthesized by Gene Tools LLC (Philomath, Oreg.) as a Special Delivery formulation, which pairs the morpholino with a partially complementary DNA oligo. A weakly basic delivery agent, Ethoxylated Polyethlyenimine (EPEI) is then used to deliver the anionic morpholino/DNA duplex into the cytosol. PMO-AS were received as sterile, lyophilized solids ([…]) that were solubilized in sterile water to obtain 0.5 mM stock solutions. To load a 35 mm dish of DMVEC at 90% confluence, 5 microl of stock solution was mixed with 5 microl of EPEI delivery solution in 590 μl H20 for 20 minutes at room temperature, and then mixed with 1.5 ml of serum-free RPMI medium. Endothelial growth media was removed from DMVEC, and replaced with the PMO-AS:EPEI:RPMI delivery solution for 3 hours in a 37° C. incubator. After incubation, cells were rinsed, complete endothelial growth medium was added and cells were cultured for up to 10 days without sub-culture, with media replacement every 48-72 hours. This protocol allows for the characteristic post-confluent growth and development of multi-layered spindle-cell aggregates (foci) in KSHV-infected cultures. Cells were monitored daily under the phase microscope to evaluate PMO-AS-inhibition of the development of these foci. At the conclusion of an assay, cells were fixed in 2% paraformaldehyde and stained with a MAB against CD31 (Dako; 1:100) followed by a goat-anti-mouse FITC second conjugate. Junctional staining of cells with CD31 accentuated the disorganized multi-layered nature of the spindle cell aggregates as composed to the flat, organized profile of contact-inhibited cells.
For these assays, KSHV-infected DMVEC monolayers were cultured to 90% confluence and then loaded with each PMO-AS, or maintained as unloaded controls. Cultures were observed daily until control cultures had developed prominent multi-layered aggregates of spindle cells. Typically this took 5-10 days with some variation between replicate experiments. Each experiment was performed at least three times and was performed with mock-infected as well as KSHV-infected DMVEC. As expected, mock-infected DMVEC maintained a quiescent monolayer at confluence, and PMO-AS treatment of uninfected cells occurred without any adverse effect. This observation allowed verification that none of the gene knockdown treatments induced non-specific toxicity in DMVEC. The majority of tested PMO-AS had no effect on the ability of KSHV-infected DMVEC to grow post-confluence and form disorganized, multi-layered foci (TABLE 2).

Series [3] concerns KSHV-infected DMVEC. The series is described as follows: XTT proliferation assay of PMO-loaded KSHV-infected DMVEC (Example 3). The conditions noted are these: PMO antisense silencing. The protocol:
Proliferation assays, and loading of cells with PMOs. Proliferation of KSHV-infected DMVEC was quantified using an XTT (2,3-bis-(2-methoxy-4-nitro-5-sulfophenyl)-2H-tetrazolium-5-carboxanilide, disodium salt)-based assay. KSHV-infected cells were added to Primaria 96-well trays (Becton Dickinson) at 1×10^4 or 5×10^4 cells/well. XTT (Roche, Molecular Biochemicals, Indianapolis, Ind.) was added 48 hours later according to the manufacturer's instructions. Absorbance was read after 4 to 6 hours on a microplate reader.
Briefly, cells were plated in 96-well trays at a density approaching confluence (5×10^4 cells per well) in 100 μl of complete medium. PMOs were loaded the following day in a total of 100 μl (0.5 μl PMO, 0.5 μl EPEI, 49 μl H2O and 50 μl serum free medium) with reagent mixing as described by the manufacturer (GeneTools). Controls included a FITC PMO control oligonucleotide, EPEI only or H2O only. Each variable was performed in quadruplicate. Fresh complete medium was replaced 4 hours after loading. Cells were cultured for 4 days to allow for multi-layered cell growth post-confluence in the absence of any growth inhibition. XTT was added on day 4 of culture and the absorbance read 4 hrs later on a microplate reader. Cell proliferation (growth) values are given as percentage inhibition values, relative to cells without PMO, which are adjusted to 100%.
For orientation: Formazan colour is commonly taken as a measure of viable cells.

Series [4] has as its system KSHV-infected DMVEC. The series is described as follows: PMO antisense inhibition of KSHV-induced spindle cell and foci formation (Example 3). The conditions noted are these: for Extent of PMO-induced Inhibition of Spindle Cell Formation: KSHV-infected DMVEC loaded with gene-specific PMO antisense + EPEI; for Phenotype Inhibition (inhibition of spindle cell formation) / KSHV-induced spindle cell / foci formation (in words): KSHV-infected DMVEC; for Phenotype Inhibition (inhibition of spindle cell formation): gene-specific PMO antisense; for KSHV-induced spindle cell / foci formation (in words): PMO antisense, c-Kit: 1.25 nmol PMO + 2.5 μl EPEI per 35 mm dish.
Text: Antisense Gene Silencing using PMOs. […] Silencing of such genes precluded progression into the transformed phenotype when silencing occurred prior to transformation, or induced reversion to the normal state when silencing occurred after induction of the transformed state (see TABLE 2 below).
as §1
Specifically, DMVEC were infected with KSHV, plated in 35 mm dishes and allowed to grow to about 90% confluence. For treatment, KSHV-infected cells were treated with the anti-c-Kit PMO-antisense oligomer-EPEI delivery reagent complex and incubated for 3 hours at 37° C. in serum-free medium to allow for oligomer uptake. A titration experiment testing a range of different oligomer/EPEI volumes was used to determine that loading 1.25 nmol oligomer with 2.5 μl EPEI reagent per 35 mm dish allowed efficient antisense uptake without non-specific EPEI-induced toxicity. Control (mock-treated) DMVEC cultures were loaded with EPEI reagent and sterile water or sterile water alone. Upon removal of the oligomer-EPEI solution, cell monolayers were rinsed in serum-free medium fed with complete medium and examined daily for one week by phase microscopy for evidence of phenotypic change.

For “KIT: FITC-labeled PMO targeting the start codon of c-Kit, CGCCTCTCATCGCGGTAGCTGCG (SEQ ID NO:21) (all phosphorodiamidate morpholino (PMO); FITC label attached, position not given here)”, the “cells with FITC-PMO concentrated in intracellular vesicles (endosomes)” value in series [1] is given as “about 70%”. Further, the Foci/spindle morpholigical inhibition result in series [2] is on record as “Full”. Further, in series [3], the “inhibition of KSHV-induced cellular proliferation (in words)” value was “substantial inhibition”. For the same substance, in series [4], the “Extent of PMO-induced Inhibition of Spindle Cell Formation” value was “full”, the “Phenotype Inhibition (inhibition of spindle cell formation)” value (“Phenotype Inhibition” for short) is listed as “Full” and the “KSHV-induced spindle cell / foci formation (in words)” value was “fully reversed spindle cell formation”. The “KSHV-induced spindle cell / foci formation (in words)” value in series [4] (listed as c-Kit) is given as “did not develop foci”.

As for “Neuritin: PMO antisense to Neuritin, TTAACTCCCATCCTACGTTTAGTCA (SEQ ID NO:19) (all phosphorodiamidate morpholino (PMO); delivered paired with partially complementary DNA oligo (Special Delivery))”, in series [2], the “effect on phenotype (foci, spindle shape) in focus-inhibition assay (in words)” value is on record as “dramatic effect on phenotype” and the Foci/spindle morpholigical inhibition entry is on record as “Full”. Also, the “inhibition of KSHV-induced cellular proliferation (in words)” value in series [3] is listed as “substantial inhibition”. Also, in series [4], the “Extent of PMO-induced Inhibition of Spindle Cell Formation” value is “full”, the “Phenotype Inhibition” value is “Full” and the “KSHV-induced spindle cell / foci formation (in words)” value was “fully reversed spindle cell formation”.

Turning to “RDC-1: PMO antisense to RDC-1, GAAGAGATGCAGATCCATCGTTCTG (SEQ ID NO:15) (all phosphorodiamidate morpholino (PMO); delivered paired with partially complementary DNA oligo (Special Delivery))”, in series [2], the “effect on phenotype (foci, spindle shape) in focus-inhibition assay (in words)” value is “dramatic effect on phenotype” and the Foci/spindle morpholigical inhibition entry is given as “Full”. The “inhibition of KSHV-induced cellular proliferation (in words)” value in series [3] was “substantial inhibition”. Moreover, in series [4], the “Extent of PMO-induced Inhibition of Spindle Cell Formation” value is on record as “full”; the “Phenotype Inhibition” value is “full and Full”; the “KSHV-induced spindle cell / foci formation (in words)” value is listed as “fully reversed spindle cell formation”.
